“Also recorded” adds a separate entry of the source.
Columns and labels:
[1] = system: P. falciparum; assay: In vitro activity against P. falciparum (both clones, D-6 and W-2); format: cell-based, Plasmodium falciparum; details: for Resistance Index: IC50 (W2)/IC50 (D6) ratio; for IC50: Plasmodium falciparum, clone not specified; for antimalarial activity (in words): general statement, refers to Table I
Experimental: (§1) In vitro activity against P. falciparum was determined using a modification of the semiautomated microdilution technique of Desjardins et al. (1979) and Milhous et al. (1985). Two P. falciparum malaria parasite clones, designated as Sierra Leone (D-6) and Indochina (W-2), are used in susceptibility testing. The former is resistant to mefloquine, and the latter to CQ, pyrimethamine, sulfadoxine, and quinine. Test compounds are dissolved in dimethylsulfoxide, and solutions serially diluted with culture media. Erythrocytes with 0.25 to 0.5% parasitemia are added to each well of a 96-well microdilution plate to give a final hematocrit of 1.5%. […] Results are reported as […] (ng/mL) values. For a complete description of this assay, see Milhous et al. (1985) and Lin et al. (1987).

[2] = system: P. berghei (strain KBG 173); assay: In vivo activity against P. berghei in mice, single subcutaneous dose 3 days after infection; parameters: species or system Plasmodium berghei; mice
Experimental: In vivo activity against P. berghei was obtained against a drug-sensitive strain of P. berghei (strain KBG 173) (Osdene et al., 1967). Each test compound is administered subcutaneous to five male mice per dilution in a single subcutaneous dose 3 days after infection. Results are expressed in T-C values which indicate the mean survival time of the treated mice beyond that of the control animals; untreated mice survive on average 6.2 days. Compounds are classified as active (A) when the mean survival time of the treated mice is twice that of the controls (>6.2 days), and curative (C) when one or more test animals live 60 days post-infection. Deaths from 0-2 days post-treatment are attributed to toxicity (T).

[3] = system: P. falciparum clone W-2 (Indochina); format: cell-based, Plasmodium falciparum
Experimental: as §1

[4] = system: P. falciparum clone D-6 (Sierra Leone); format: cell-based, Plasmodium falciparum; details: D-6 clone (resistant to mefloquine)
Experimental: as §1

[5] = 40 mg/kg s.c., single dose 3 days post infection, n = 5
[6] = 160 mg/kg s.c., single dose 3 days post infection, n = 5
[7] = 640 mg/kg s.c., single dose 3 days post infection, n = 5

SMILES | in vitro activity against P. falciparum (in words) [1] | Resistance Index [1] | IC50 [1] | antimalarial activity (in words) [1] | in vivo activity against P. berghei (in words) [2] | P. berghei T-C [2, 5] | mice cured ([2]; 160 mg/kg) | mice cured ([2]; 320 mg/kg) | P. falciparum IC50 (nM) W-2 [3] | P. falciparum IC50 (nM) D-6 [4] | P. berghei T-C ([2]; CQ, 40 mg/kg s.c., average of ten best data sets from WRAIR) | P. berghei T-C [2, 6] | P. berghei T-C [2, 7]
Clc1ccc2c(N[C@@H]3CCCC[C@H]3Nc3ccnc4cc(Cl)ccc34)ccnc2c1 (relative stereo) [Compound 3, ±-trans-N^1,N^2 -Bis (7-chloroquinolin-4-Yl) cyclohexane-1,2-diamine] | most potent bisquinoline in vitro | 1.4 | < 6 nM | exceptional activity | either active or curative | 8.5 days | 4/5 | 5/5 | 1.4 nM | 1.0 nM | – | – | –
CCN(CC)CCCC(C)Nc1ccnc2cc(Cl)ccc12 (centres unmarked) [CQ, chloroquine, reference compound] | – | 11.2 | – | – | – | – | – | – | – | – | 8.7 days | – | –
CC(CNc1ccnc2cc(Cl)ccc12)Nc1ccnc2cc(Cl)ccc12 (centres unmarked) [Compound 2, N1,N2 -Bis(7-chloroquinolin-4-yl)propane1,2-diamine] | – | 1.1 | < 6 nM | improved activity | either active or curative | 3.4 days | – | – | 3.9 nM | 3.5 nM | – | 5.7 days | –
Clc1ccc2c(NCCCNc3ccnc4cc(Cl)ccc34)ccnc2c1 [Compound 4, N^1,N^3 -Bis(7-chloroquinolin-4-yl)propane1,3-diamine] | approximately an order of magnitude less potent in vitro; also recorded: inactive in both screens | 5.5 | – | – | without activity in vivo; also recorded: inactive in both screens | 0.2 days | – | – | 82.9 nM | 15.1 nM | – | 0.4 days | 1.2 days
Clc1ccc2c(NCCCCNc3ccnc4cc(Cl)ccc34)ccnc2c1 [Compound 5, N1,N4 -Bis(7-chloroquinolin-4-yl)butane-1,4-diamine] | approximately an order of magnitude less potent in vitro; also recorded: inactive in both screens | 0.2 | – | – | without activity in vivo; also recorded: inactive in both screens | 0.5 days | – | – | 80.9 nM | 387 nM | – | 2.3 days | 5.6 days
Clc1ccc2c(NCCCCCNc3ccnc4cc(Cl)ccc34)ccnc2c1 [Compound 6, N^1, N^5 -Bis(7-chloroquinolin-4-yl)pentane-1,5-diamine] | – | 1.5 | < 6 nM | – | either active or curative | 1.0 days | – | – | 3.8 nM | 2.5 nM | – | 5.1 days | –
CC(CCCNc1ccnc2cc(Cl)ccc12)CNc1ccnc2cc(Cl)ccc12 (centres unmarked) [Compound 7, N^1, N^5 -Bis(7-chloroquinolin-4-yl)-2-methylpentane-1,5-diamine] | – | 1.1 | < 6 nM | improved activity | either active or curative | 1.2 days | – | – | 3.0 nM | 2.7 nM | – | 3.6 days | –
Clc1ccc2c(NCCCCCCNc3ccnc4cc(Cl)ccc34)ccnc2c1 [Compound 8, N^1, N^6 -Bis(7-chloroquinolin-4-yl)hexane-1,6-diamine] | – | 1.1 | – | – | – | 0.4 days | – | – | 23.4 nM | 21.1 nM | – | 3.9 days | –
